Assay results as given in patent publication US9458141B2, “Low molecular weight thyroid stimulating hormone receptor (TSHR) agonists” (The United States of America, as represented by the …, priority 2008, dated 2016).

Target: T1, human TSHR (Homo sapiens, UniProt P16473)
T1 construct: expressed in transfected cells
Assay: Homogeneous Time Resolved Fluorescence (HTRF) cAMP assay, TSHR cell line
Assay type: cell-based
Settings: for Maximum Activity compared to TSH: 100% activity = response of 30 mU/ml TSH, 0% = DMSO control, in %; for AC50: HTRF cAMP, TSHR cell line, 30 minute incubation, read-out: AC50; for Emax: read-out: Maximum Activity compared to TSH, 100% activity = response of 30 mU/ml TSH, 0% = DMSO control
Text: Generation of Stable Cell-Lines Expressing TSHR, LHCGR or FSHR.
cDNA for human TSHR was amplified by PCR from hTSHR-pSVL (1) and inserted into the pcDNA3.1(−)/hygromycin vector using restriction sites XhoI and BamHI. cDNA for human LHCGR was amplified by PCR from hLHR-pGS5 (2) and was inserted into the pcDNA3.1(+)/hygromycin vector using restriction sites BamHI and XhoI. The FSHR cDNA in pcDNA3.1 was obtained from the Missouri S&T cDNA Resource Center (www.cDNA.org) and was subcloned into the pcDNA3.1(−)/hygromycin vector. Constructs were confirmed by sequencing (MWG Biotech). HEK-EM 293 cells were transfected with the cDNA of TSHR, LHCGR or FSHR using FuGENE 6 Transfection reagent (Roche Diagnostics) according to the manufacturer's protocol. Two days after transfection cells were passaged and grown in Dulbecco's modified Eagle's Medium (DMEM) supplemented with 10% fetal bovine serum, 100 units/ml penicillin and 10 μg/ml streptomycin (Life Technologies Inc.) and with hygromycin (250 μg/ml) as a selection marker. After 7 to 10 days hygromycin-resistant clones were selected, and after a few days of further growth submitted for a cAMP assay to identify clones that stably express the appropriate receptor. Cell Culture. Cells stably expressing TSHR, LHCGR or FSHR and parental HEK 293 cells were maintained in DMEM medium containing 10% FBS, 100 units/ml Penicillin, 100 μg/ml Streptomycin, at 37° C. in 5% CO2. For the cells lines stably expressing TSHR, LHCGR or FSHR, additional 250 μg/ml Hygromycin was added during the cell culture. The cells were seeded at a density of 3 to 4 million cells in a T175 flask containing 35 ml of media and were allowed to grow for 3 days to reach 80-90% confluence. A flask of HEK 293 cells at this density generally yielded 30 million cells total. Homogeneous Time Resolved Fluorescence (HTRF) cAMP Assay. Compounds were assayed using a HTRF cAMP detection kit (Cisbio, Bedford, Mass.) on both TSHR cell line and parental cell line. Briefly, 750 cells were plated in 2.5 μl/well of complete media (DMEM containing 10% FCS) in 1536 well solid bottom white plates and 20 nl/well compound in DMSO solution or controls was added. Following 30 minute incubation at room temperature, 2.5 μl/well of labeled d2 cAMP and 2.5 μl/well of anti-cAMP antibody (both diluted 1:20 in lysis buffer) were added to each well using a flying reagent dispenser (Aurora Discovery, San Diego). Plates were measured using the Envision plate reader (PerkinElmer, Boston, Mass.) with excitation at 330 nm and emissions of 615 nm and 660 nm. Compound Preparation. […] Data Analysis. […] The EC50 values of compounds were calculated from the concentration-response curves by nonlinear regression analysis using Prism software (GraphPad Software, San Diego, Calif.). Confirmatory cAMP Assay and Test for Selectivity Towards TSHR 50,000 cells/well were plated in complete media (DMEM containing 10% FCS) in 96 well plates. […] Following aspiration of the medium after incubation with compounds, cells were lysed using lysis buffer of the cAMP-Screen Direct™ System (Applied Biosystems, Cat # CSD200). The cAMP content of the cell lysate was determined using the manufacturer's protocol. […] Below is a List of Compounds that were Assayed via the Homogeneous Time Resolved Fluorescence (HTRF) cAMP Assay.

T1 sequence (P16473 21-764): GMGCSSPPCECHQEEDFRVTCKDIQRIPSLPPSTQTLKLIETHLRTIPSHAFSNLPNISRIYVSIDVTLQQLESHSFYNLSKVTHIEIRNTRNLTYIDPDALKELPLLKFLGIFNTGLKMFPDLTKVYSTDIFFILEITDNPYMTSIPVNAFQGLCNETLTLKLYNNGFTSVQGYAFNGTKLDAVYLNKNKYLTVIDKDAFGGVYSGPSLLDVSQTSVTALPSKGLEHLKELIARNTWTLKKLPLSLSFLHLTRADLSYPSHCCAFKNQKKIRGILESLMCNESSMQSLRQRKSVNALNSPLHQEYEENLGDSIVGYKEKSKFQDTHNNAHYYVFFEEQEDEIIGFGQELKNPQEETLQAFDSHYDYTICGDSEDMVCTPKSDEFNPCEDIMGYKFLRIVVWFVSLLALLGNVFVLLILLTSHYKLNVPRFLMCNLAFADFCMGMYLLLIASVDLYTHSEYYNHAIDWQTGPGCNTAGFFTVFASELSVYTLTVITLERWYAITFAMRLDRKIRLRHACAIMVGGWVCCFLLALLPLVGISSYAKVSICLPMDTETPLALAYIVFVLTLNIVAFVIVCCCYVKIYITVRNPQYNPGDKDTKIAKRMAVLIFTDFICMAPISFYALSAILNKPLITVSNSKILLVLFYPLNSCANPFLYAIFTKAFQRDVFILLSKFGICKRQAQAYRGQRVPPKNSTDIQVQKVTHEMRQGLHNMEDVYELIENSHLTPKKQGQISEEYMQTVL

| Maximum Activity compared to TSH | AC50 [µM] | Emax [%] | Compound |
| --- | --- | --- | --- |
| 47.53 | 7.94 |  | COc1ccc(C2N(Cc3ccccc3)C(=O)c3ccccc3N2C)cc1COc1ccc(NC(C)=O)cc1 (stereo not shown) [Structure 84] |
| 54.95 |  |  | COc1ccc([C@H]2[C@H](c3ccccc3)C(=O)N2Cc2ccccc2)cc1COc1ccc(NC(C)=O)cc1 [Structure 85] |
| 51.11 | 6.31 |  | COc1ccc(C2Nc3ccccc3C(=O)N2Cc2cccc3ccccc23)cc1COc1ccc(NC(C)=O)cc1 (stereo not shown) [Structure 86] |
|  | 3.98 | 38 | COc1ccc(OCc2cc(C3Nc4ccccc4C(=O)N3Cc3ccccc3)ccc2OC)cc1 (stereo not shown) [Structure 87] |
|  | 5.62 | 30.5 | COc1ccc(C2Nc3ccccc3C(=O)N2Cc2ccccc2C(F)(F)F)cc1COc1ccc(NC(C)=O)cc1 (stereo not shown) [Structure 88] |
| 129.12 | 25.1 |  | COc1ccc(C2Nc3ccccc3C(=O)N2Cc2ccco2)cc1COc1ccc(NC(C)=O)cc1 (stereo not shown) [Structure 89] |
| 110.89 |  |  | COc1ccc([C@H]2[C@H](c3ccccc3)C(=O)N2Cc2ccccc2)cc1COc1ccc(NC(C)=O)cc1 [Structure 90] |
| 88.07 | 15.8 |  | COc1ccc(C2Nc3ccccc3C(=O)N2Cc2ccco2)cc1COc1ccc(NC(C)=O)cc1 (stereo not shown) [Structure 91] |
| 133.48 | 31.6 |  | COc1ccc(C(=O)N(Cc2ccccc2)Cc2cccs2)c(O)c1 [Structure 92] |
| 111.66 | 28.2 |  | COc1ccc(C(=O)N(Cc2ccccc2)Cc2cccs2)c(O)c1 [Structure 93] |
| 160.25 | 25.1 |  | COc1ccc(C2Nc3ccccc3C(=O)N2Cc2ccco2)cc1COc1ccc(NC(C)=O)cc1 (stereo not shown) [Structure 94] |
| 138.18 | 12.6 |  | COc1ccc(-c2nc3ccccc3c(=O)n2Cc2ccccc2)cc1COc1ccc(NC(C)=O)cc1 [Structure 95] |
|  | 14.1 | 125 | COc1ccc(CN(Cc2ccccc2)C(=O)c2ccco2)cc1COc1ccc(NC(C)=O)cc1 [Structure 96] |
| 132.18 | 15.8 |  | COc1ccc(-c2nc3ccccc3c(=O)n2Cc2ccccc2)cc1COc1ccc(NC(C)=O)cc1 [Structure 97] |
| 140.53 | 14.1 |  | COc1ccc(CN(Cc2ccccc2)C(=O)c2ccccc2)cc1COc1ccc(NC(C)=O)cc1 [Structure 98] |
|  | 35.5 | 104 | COc1ccc(C2Nc3ccccc3C(=O)N2Cc2cccnc2)cc1COc1ccc(NC(C)=O)cc1 (stereo not shown) [Structure 99] |
| 190.35 | 35.5 |  | COc1ccc(CN(Cc2ccccc2)C(=O)c2ccccc2N)cc1COc1ccc(NC(C)=O)cc1 [Structure 100] |
| 128.51 | 28.2 |  | COc1ccc(C(=O)N(Cc2ccco2)Cc2cccs2)c(O)c1 [Structure 101] |
|  | 15.8 | 88.7 | COc1ccc(C(=O)N(Cc2ccccc2)Cc2ccco2)c(O)c1 [Structure 102] |
| 106.72 | 15.8 |  | COc1ccc(C(=O)N(Cc2cccs2)Cc2cccs2)c(O)c1 [Structure 103] |
| 122.31 | 39.8 |  | COc1ccc(CN(Cc2ccccc2)C(=O)c2ccc(O)cc2)cc1COc1ccc(NC(C)=O)cc1 [Structure 104] |
|  | 17.8 | 126 | COc1ccc(C2Nc3ccc(NC(C)=O)cc3C(=O)N2Cc2ccccc2)cc1COc1ccc(NC(C)=O)cc1 (stereo not shown) [Structure 105] |
|  | 17.8 | 45.4 | COc1ccc(C2Nc3cccc(OC)c3C(=O)N2Cc2ccccc2)cc1COc1ccc(NC(C)=O)cc1 (stereo not shown) [Structure 106] |
|  | 31.6 | 63.7 | COc1ccc(C2Nc3ccccc3C(=O)N2Cc2ccc(CNC(=O)CO)cc2)cc1COc1ccc(NC(C)=O)cc1 (stereo not shown) [Structure 107] |
